We go through 27 molecules from patent US10030016B2 (Sunesis Pharmaceuticals, Inc., priority 2009, dated 2018).

The target of one assay is PDK1 (Homo sapiens (Human), UniProt O15530). Description: PDK1 kinase assay (coupled PDK1/AKT/FAM-crosstide assay, IMAP fluorescence polarization). It is filed as biochemical. The essentials: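 GST-tagged human PDK1 (aa 51-359, 0.75 nM) from insect cells activated unphosphorylated GST-AKT2 (aa 140-467–PIFtide fusion, 10 nM), which phosphorylated 100 nM FAM-crosstide; 40 μM ATP, pH 7.2 Tris/MgCl2, 30 min at 25° C. IMAP fluorescence polarization read-out; ΔmP versus compound concentration fitted with a 4-parameter curve.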
Chain of PDK1 (O15530 51-359): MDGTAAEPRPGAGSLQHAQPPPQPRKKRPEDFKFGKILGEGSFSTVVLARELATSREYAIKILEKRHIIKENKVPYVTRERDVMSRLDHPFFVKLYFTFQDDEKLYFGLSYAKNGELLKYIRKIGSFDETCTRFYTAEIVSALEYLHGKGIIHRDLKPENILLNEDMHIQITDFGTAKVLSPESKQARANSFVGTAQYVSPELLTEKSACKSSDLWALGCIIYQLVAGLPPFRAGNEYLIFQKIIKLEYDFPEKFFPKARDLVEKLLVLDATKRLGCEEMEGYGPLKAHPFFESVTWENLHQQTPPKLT

Assay [1] relates to phospho-akt (Thr308) in PC-3 cells. Nature of the assay: Inhibition of phospho-akt (Thr308) in PC-3 cells, MSD phospho-akt 308 ELISA kit. As to conditions: Homo sapiens, 2 hours, no serum, read-out: EC50. It is filed as cell-based. The essentials: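 PC-3 cells (15,000/well, overnight in 10% FBS medium) treated 2 h with three-fold diluted compounds in serum-free medium; DMSO high and 5 μM wortmannin low controls. Lysates captured on BSA-blocked MSD plates overnight at 4 °C, then 1 h antibody detection at RT; phospho-Akt Thr308 read by MSD electrochemiluminescence.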

The mark [2] stands for this setting: inhibition of P308 Akt in PC-3 cells using MSD.
Where [3] appears, read: inhibition of phospo-PDK1 in vitro.
Setting [4] is: inhibition of P308 Akt in PC-3 cells, MSD.

Molecules are shown by their SMILES. Where a name gives a salt, the structure may show the parent alone. Read-outs that look alike come from different tables or passages of the source.

`N#Cc1cnc(NCc2ccc(-c3ccc(N)nc3)cc2)c(C(=O)NCc2ccc(F)c(F)c2)n1` [Example 372, 3-(4-(6-aminopyridin-3-yl)benzylamino)-6-cyano-N-(3,4-difluorobenzyl)pyrazine-2-carboxamide]: at PDK1 (inhibition of PDK1 in vitro), the IC50 is less than 0.1 µM. Further, the concentration for a half-maximal effect (EC50) in assay [1] (setting [2]) was in the range of 1 to 10 µM.

`C[C@H](NC(=O)c1cccnc1N[C@@H](COc1ccc([N+](=O)[O-])c(N)c1)c1cccc(Cl)c1)c1ccc(F)c(F)c1` [Example 16.7, 2-((R)-2-(3-amino-4-nitrophenoxy)-1-(3-chlorophenyl)ethylamino)-N-((S)-1-(3,4-difluorophenyl)ethyl)nicotinamide] registered an IC50 against PDK1 (setting [3]) greater than 5 µM. In assay [1] (setting [4]), the EC50 is greater than 10 µM.

The molecule `C[C@H](NC(=O)c1cc(C#N)cnc1Nc1ccc(-c2c[nH]c3ncnc(N)c23)cc1)c1ccc(F)cc1` [Example 436, (S)-2-(4-(4-amino-7H-pyrrolo[2,3-d]pyrimidin-5-yl)phenylamino)-5-cyano-N-(1-(4-fluorophenyl)ethyl)nicotinamide] displayed a half-maximal inhibitory concentration (IC50) at PDK1 (inhibition of PDK1 in vitro) of 0.1 to 1 µM. In addition, the EC50 in assay [1] (setting [2]) was 1 to 10 µM.

With `Nc1n[nH]c2ncc(-c3ccc(CNc4ncc(C(F)(F)F)cc4C(=O)Nc4ccc(C(F)(F)F)nc4)cc3)cc12` [Example 276, 2-(4-(3-amino-1H-pyrazolo [3,4-b]pyridin-5-yl)benzylamino)-5-(trifluoromethyl)-N-(6-(trifluoromethyl)pyridin-3-yl)nicotinamide], the IC50 against PDK1 (inhibition of PDK1 in vitro) is less than 0.1 µM. Besides, the EC50 in assay [1] (setting [2]) fell in the range of 1 to 10 µM.

With `O=C(NCc1ccc(F)c(F)c1)c1cccnc1NCc1cc(-c2c[nH]c3ncc(-c4ccc[nH]4)cc23)ccn1` [Example 336], the 50% inhibitory concentration (IC50) against PDK1 (inhibition of PDK1 in vitro) was less than 0.1 µM. Further, the half-maximal effective concentration (EC50) in assay [1] (setting [2]) is 1 to 10 µM.

In turn, `C[C@H](NC(=O)c1cc(C#N)cnc1NCc1ccc(-c2cnc(N)c(C(N)=O)c2)cc1)c1ccc(F)cc1` [Example 201, (S)-2-(4-(6-amino-5-carbamoylpyridin-3-yl)benzylamino)-5-cyano-N-(1-(4-fluorophenyl)ethyl)nicotinamide] gave an IC50 on PDK1 (inhibition of PDK1 in vitro) of less than 0.1 µM. Besides, in assay [1] (setting [2]), the EC50 is less than 1 µM.

As for `Nc1cnc(-c2ccc(CNc3nccc4ncn(Cc5ccc(F)c(F)c5)c(=O)c34)cc2)cn1` [Example 381, 5-(4-(5-aminopyrazin-2-yl)benzylamino)-3-(3,4-difluorobenzyl)pyrido[4,3-d] pyrimidin-4(3H)-one], the IC50 at PDK1 (inhibition of PDK1 in vitro) is less than 0.1 µM. Further, the concentration for a half-maximal effect (EC50) in assay [1] (setting [2]) lay in the range of 1 to 10 µM.

For the molecule `C[C@H](NC(=O)c1cccnc1NCc1ccc(-c2ccc3ncc4[nH]c(=O)n(C)c4c3c2)s1)c1ccc(F)cc1` [Example 2.16, (S)-N-(1-(4-fluorophenyl)ethyl)-2-(((5-(1-methyl-2-oxo-2,3-dihydro-1H-imidazo[4,5-c]quinolin-8-yl)thiophen-2-yl)methyl)amino) nicotinamide], the IC50 on PDK1 (setting [3]) was greater than 5 µM. In addition, in assay [1] (setting [4]), the half-maximal effective concentration (EC50) is greater than 10 µM.

`Nc1ncnc2ccc(-c3ccc(CNc4ncccc4C(=O)NCc4cc(F)cc(F)c4)s3)cc12` [Example 3.39, 2-({[5-(4-aminoquinazolin-6-yl)thiophen-2-yl]methyl}amino)-N-(3,5-difluorobenzyl) pyridine-3-carboxamide (TFA salt)] displayed an IC50 on PDK1 (setting [3]) of less than 0.1 µM. In addition, the EC50 in assay [1] (setting [4]) is less than 1 µM.

Take `C[C@H](NC(=O)c1nccnc1NC/C=C/c1ccc2c(c1)NC(=O)/C2=C\c1cnc[nH]1)c1ccc(F)cc1` [Example 15.20, 3-((E)-3-((Z)-3-((1H-imidazol-5-yl)methylene)-2-oxoindolin-6-yl)allylamino)-N-((S)-1-(4-fluorophenyl)ethyl) pyrazine-2-carboxamide]: the concentration for half-maximal inhibition (IC50) at PDK1 (setting [3]) is less than 0.1 µM. Besides, the EC50 in assay [1] (setting [4]) was less than 1 µM.

On to `C[C@H](NC(=O)c1cccnc1NCc1ccc(-c2ccc3ncnc(N4CC(CO)C4)c3c2)s1)c1ccc(F)c(F)c1` [Example 4.38], for which, on PDK1 (setting [3]), the IC50 was less than 0.1 µM. The EC50 in assay [1] (setting [4]) lay in the range of 1 to 10 µM.

As for `O=C(NCc1ccc(F)c(F)c1)c1cccnc1NCc1ccc(-c2cnc3[nH]ncc3c2)s1` [Example 2.32, 2-(((5-(1H-pyrazolo[3,4-b]pyridin-5-yl)thiophen-2-yl)methyl)amino)-N-(3,4-difluorobenzyl) nicotinamide], the IC50 at PDK1 (setting [3]) is less than 0.1 µM. In assay [1] (setting [4]), the EC50 was 1 to 10 µM.

In the case of `Nc1ncnc2ccc(-c3ccc(CNc4ncccc4C(=O)Nc4cccc(F)c4)s3)cc12` [Example 3.46, 2-({[5-(4-aminoquinazolin-6-yl)thiophen-2-yl]methyl}amino)-N-(3-fluorophenyl)pyridine-3-carboxamide (TFA salt)], on PDK1 (setting [3]), the 50% inhibitory concentration (IC50) lay within 0.1 to 1 µM. In assay [1] (setting [4]), the concentration giving a half-maximal response (EC50) lay in the range of 1 to 10 µM.

`Nc1ncnc2ccc(-c3ccc(CNc4ncccc4C(=O)NCc4cc(F)ccc4C(F)(F)F)s3)cc12` [Example 3.12, 2-({[5-(4-aminoquinazolin-6-yl)thiophen-2-yl]methyl}amino)-N-[5-fluoro-2-(trifluoromethyl)benzyl]pyridine-3-carboxamide (TFA salt)] gave an IC50 at PDK1 (setting [3]) greater than 5 µM. For the same molecule, the EC50 in assay [1] (setting [4]) was greater than 10 µM.

Consider `Nc1n[nH]c2ncc(-c3ccc(CNc4ncc(C(F)(F)F)cc4C(=O)Nc4cccc(C(F)(F)F)c4)cc3)cc12` [Example 294], for which the IC50 against PDK1 (inhibition of PDK1 in vitro) is less than 0.1 µM. Also, the half-maximal effective concentration (EC50) in assay [1] (setting [2]) is 1 to 10 µM.

On PDK1 (setting [3]), `CC(C)Oc1cc(CNc2ncccc2C(=O)Nc2ccc(C(F)(F)F)cc2)cc(-c2c[nH]c3ncc(C(=O)NC4CC4)cc23)c1` [Example 4.1.2] showed an IC50 greater than 5 µM. Besides, in assay [1] (setting [4]), the EC50 was greater than 10 µM.

In turn, `N#Cc1cnc(NCc2ccc(-c3cnc4[nH]nc(N)c4c3)cc2)c(C(=O)NCc2ccc(F)cc2)n1` [Example 33, 3-(4-(3-amino-1H-pyrazolo[3,4-b]pyridin-5-yl)benzylamino)-6-cyano-N-(4-fluorobenzyl) pyrazine-2-carboxamide] showed an IC50 against PDK1 (setting [3]) of less than 0.1 µM. The concentration giving a half-maximal response (EC50) in assay [1] (setting [4]) was less than 1 µM.

At PDK1 (setting [3]), `CN(C)CCCNC(=O)c1cnc(NCc2ccc(-c3ccc4ncnc(N)c4c3)s2)c(C(=O)NCc2ccc(F)c(F)c2)c1` [Example 7.24.5, 2-({[5-(4-aminoquinazolin-6-yl)thiophen-2-yl]methyl}amino)-N^3-(3,4-difluorobenzyl)-N^5-[3-(dimethylamino)propyl] pyridine-3,5-dicarboxamide] returned an IC50 of 0.1 to 1 µM. Besides, the EC50 in assay [1] (setting [4]) is greater than 10 µM.

`COCCn1cc(-c2ccc(CNc3ncc(C(F)(F)F)cc3C(=O)Nc3ccc(F)cc3)cc2)c2c(N)ncnc21` [Example 431]: at PDK1 (inhibition of PDK1 in vitro), the IC50 was less than 0.1 µM. Also, in assay [1] (setting [2]), the EC50 fell in the range of 1 to 10 µM.

`Cn1cnc2cnc3ccc(-c4cnc(CNc5ncccc5C(=O)NCc5ccc(F)c(F)c5)s4)cc3c21` [Example 384, N-(3,4-Difluoro-benzyl)-2-{[5-(1-methyl-1H-imidazo [4,5-c]quinolin-8-yl)-thiazol-2-ylmethyl]-amino}-nicotinamide]: the concentration for half-maximal inhibition (IC50) against PDK1 (inhibition of PDK1 in vitro) was less than 0.1 µM. In addition, the EC50 in assay [1] (setting [2]) is less than 1 µM.

In the case of `Nc1ncnn2ccc(-c3ccc(CNc4ncc(C(F)(F)F)cc4C(=O)Nc4ccc(F)cc4)cc3)c12` [Example 177, 2-[4-(4-Amino-pyrrolo [2,1-f][1,2,4]triazin-5-yl)-benzylamino]-N-(4-fluoro-phenyl)-5-trifluoromethyl-nicotinamide], on PDK1 (inhibition of PDK1 in vitro), the half-maximal inhibitory concentration (IC50) is less than 0.1 µM. Moreover, in assay [1] (setting [2]), the EC50 lay within 1 to 10 µM.

Regarding `Cn1cnc2cnc3ccc(-c4ccc(CNc5ncc(C#N)nc5C(=O)NCc5ccc(F)c(F)c5)s4)cc3c21` [Example 3.81, 6-cyano-N-(3,4-difluorobenzyl)-3-(((5-(1-methyl-1H-imidazo [4,5-c]quinolin-8-yl)thiophen-2-yl)methyl)amino)pyrazine-2-carboxamide (TFA salt)], the IC50 at PDK1 (setting [3]) was less than 0.1 µM. In assay [1] (setting [4]), the concentration giving a half-maximal response (EC50) was less than 1 µM.

As to `CNC(=O)c1cc(S(=O)(=O)NCCO)cnc1NCc1ccc(-c2ccc3ncnc(N)c3c2)s1` [Example 342], on PDK1 (inhibition of PDK1 in vitro), the IC50 was greater than 5 µM. Further, the half-maximal effective concentration (EC50) in assay [1] (setting [2]) is greater than 10 µM.

In turn, `C[C@H](NC(=O)c1cc(C(F)(F)F)cnc1NCc1ccc(-c2cnc(N)cn2)cc1)c1ccc(F)cc1` [Example 379, (S)-2-(4-(5-aminopyrazin-2-yl)benzylamino)-N-(1-(4-fluorophenyl)ethyl)-5-(trifluoromethyl)nicotinamide] displayed an IC50 against PDK1 (inhibition of PDK1 in vitro) of less than 0.1 µM. Besides, the EC50 in assay [1] (setting [2]) was less than 1 µM.

`CCS(=O)(=O)Nc1cnc(NCc2ccc(-c3ccc4ncnc(N)c4c3)s2)c(C(=O)NCc2ccc(F)c(F)c2)c1` [Example 8.6.2, 2-({[5-(4-aminoquinazolin-6-yl)thiophen-2-yl]methyl}amino)-N-(3,4-difluorobenzyl)-5-[(ethylsulfonyl)amino] pyridine-3-carboxamide]: the half-inhibitory concentration (IC50) against PDK1 (setting [3]) fell in the range of 0.1 to 1 µM. Moreover, the EC50 in assay [1] (PC-3, 2 h, inhibition of P308 Akt in PC-3 cells, MSD) was less than 1 µM.

`C[C@H](NC(=O)c1cc(C#N)cnc1NCc1ccc(-c2cnc3[nH]nc(N)c3c2)nc1)c1ccc(F)cc1` [Example 66, 2-{[6-(3-Amino-1H-pyrazolo[3,4-b]pyridin-5-yl)-pyridin-3-ylmethyl]-amino}-5-cyano-N-[(S)-1-(4-fluoro-phenyl)-ethyl]-nicotinamide] yielded a half-inhibitory concentration (IC50) on PDK1 (inhibition of PDK1 in vitro) of less than 0.1 µM. For the same molecule, the concentration giving a half-maximal response (EC50) in assay [1] (setting [2]) is less than 1 µM.

Turning to `C[C@H](NC(=O)c1cc(C#N)cnc1NCc1ccc(-c2cnc(N)c(CCC(C)(C)N)n2)cc1)c1ccc(F)cc1` [Example 82, 2-{4-[5-Amino-6-(3-amino-3-methyl-butyl)-pyrazin-2-yl]-benzylamino}-5-cyano-N-[(S)-1-(4-fluoro-phenyl)-ethyl]-nicotinamide], the 50% inhibitory concentration (IC50) against PDK1 (inhibition of PDK1 in vitro) is less than 0.1 µM. Besides, the EC50 in assay [1] (setting [2]) is less than 1 µM.

Broadly, the IC50 is the point on the concentration scale where inhibition reaches its midpoint. Low values mean inhibition by little substance, high ones a need for much substance. The EC50 is the concentration giving half of the maximal effect.
